From ChEMBL document CHEMBL1933046, “Synthesis and antibacterial activity of a novel series of acylides active against community acquired respiratory pathogens” (2012)
Converted amounts (≈) assume the structure as drawn. The source made the active and inactive calls. The calls are words filed in the database; no cut-off is given here.

What was measured:
Streptococcus pneumoniae [1] = assay: Antibacterial activity against Streptococcus pneumoniae 994 expressing mef gene by NCCLS method; format: functional
Streptococcus pneumoniae [2] = assay: Antibacterial activity against telethromycin-resistant Streptococcus pneumoniae 162 expressing erm gene by NCCLS method; format: functional
Streptococcus pneumoniae [3] = assay: Antibacterial activity against telethromycin-resistant Streptococcus pneumoniae 5099 expressing erm gene by NCCLS method; format: functional
Streptococcus pneumoniae [4] = assay: Antibacterial activity against telethromycin-resistant Streptococcus pneumoniae 3488 expressing erm gene by NCCLS method; format: functional
Streptococcus pneumoniae [5] = assay: Antibacterial activity against telethromycin-resistant Streptococcus pneumoniae B739 expressing erm gene by NCCLS method; format: functional
Streptococcus pneumoniae [6] = assay: Antibacterial activity against telethromycin-resistant Streptococcus pneumoniae 2840 expressing erm gene by NCCLS method; format: functional
Streptococcus pneumoniae [7] = assay: Antibacterial activity against telethromycin-resistant Streptococcus pneumoniae 3271 expressing erm gene by NCCLS method; format: functional
Streptococcus pneumoniae [8] = assay: Antibacterial activity against Streptococcus pneumoniae 49619 by NCCLS method; format: functional
Haemophilus influenzae = assay: Antibacterial activity against Haemophilus influenzae 38 by NCCLS method; format: functional
Moraxella catarrhalis = assay: Antibacterial activity against Moraxella catarrhalis 8176 by NCCLS method; format: functional
Streptococcus pneumoniae [9] = assay: Antibacterial activity against Streptococcus pneumoniae 6303 by NCCLS method; format: functional
Streptococcus pyogenes = assay: Antibacterial activity against Streptococcus pyogenes 19615 by NCCLS method; format: functional
Streptococcus pneumoniae [10] = assay: Antibacterial activity against telethromycin-resistant Streptococcus pneumoniae 3489 expressing erm gene by NCCLS method; format: functional
Streptococcus pneumoniae [11] = assay: Antibacterial activity against telethromycin-resistant Streptococcus pneumoniae 3390 expressing erm gene by NCCLS method; format: functional
Streptococcus pneumoniae [12] = assay: Antibacterial activity against Streptococcus pneumoniae 3579 expressing erm gene by NCCLS method; format: functional
Streptococcus pneumoniae [13] = assay: Antibacterial activity against telethromycin-resistant Streptococcus pneumoniae AB14 expressing erm gene by NCCLS method; format: functional
Streptococcus pneumoniae [14] = assay: Antibacterial activity against telethromycin-resistant Streptococcus pneumoniae 217 expressing erm gene by NCCLS method; format: functional
Streptococcus pneumoniae [15] = assay: Antibacterial activity against telethromycin-resistant Streptococcus pneumoniae 757 expressing erm gene by NCCLS method; format: functional
Streptococcus pneumoniae [16] = assay: Antibacterial activity against telethromycin-resistant Streptococcus pneumoniae 5051 expressing erm gene by NCCLS method; format: functional
Streptococcus pneumoniae [17] = assay: Antibacterial activity against Streptococcus pneumoniae 3579 expressing erm gene infected in mouse systemic infection model; format: functional, organism-based

Compound	MIC (Streptococcus pneumoniae [1]) [µg/mL]	MIC (Streptococcus pneumoniae [2]) [µg/mL]	MIC (Streptococcus pneumoniae [3]) [µg/mL]	MIC (Streptococcus pneumoniae [4]) [µg/mL]	MIC (Streptococcus pneumoniae [5]) [µg/mL]	MIC (Streptococcus pneumoniae [6]) [µg/mL]	MIC (Streptococcus pneumoniae [7]) [µg/mL]	MIC (Streptococcus pneumoniae [8]) [µg/mL]	MIC (Haemophilus influenzae) [µg/mL]	MIC (Moraxella catarrhalis) [µg/mL]	MIC (Streptococcus pneumoniae [9]) [µg/mL]	MIC (Streptococcus pyogenes) [µg/mL]	MIC (Streptococcus pneumoniae [10]) [µg/mL]	MIC (Streptococcus pneumoniae [11]) [µg/mL]	MIC (Streptococcus pneumoniae [12]) [µg/mL]	MIC (Streptococcus pneumoniae [13]) [µg/mL]	MIC (Streptococcus pneumoniae [14]) [µg/mL]	MIC (Streptococcus pneumoniae [15]) [µg/mL]	MIC (Streptococcus pneumoniae [16]) [µg/mL]	Activity (Streptococcus pneumoniae [17])
C=CCN(C)[C@H]1C[C@@H](C)O[C@@H](O[C@@H]2[C@@H](C)[C@H](OC(=O)Cc3ccccn3)[C@@H](C)C(=O)O[C@H](CC)[C@@]3(C)OC(=O)N(CCCCn4cnc(-c5ccco5)c4)[C@@H]3[C@@H](C)C(=O)[C@H](C)C[C@@]2(C)OC)[C@@H]1O	0.125 (≈ 0.132 µM)	4 (≈ 4.22 µM)	0.25 (≈ 0.264 µM)	0.5 (≈ 0.527 µM)	2 (≈ 2.11 µM)	2 (≈ 2.11 µM)	2 (≈ 2.11 µM)	0.03 (≈ 0.0316 µM)	< 0.06	0.25 (≈ 0.264 µM)	0.06 (≈ 0.0633 µM)	0.03 (≈ 0.0316 µM)	2 (≈ 2.11 µM)	0.5 (≈ 0.527 µM)	0.125 (≈ 0.132 µM)	0.25 (≈ 0.264 µM)	1 (≈ 1.05 µM)	1 (≈ 1.05 µM)	0.25 (≈ 0.264 µM)	Active
C=CCN(C)[C@H]1C[C@@H](C)O[C@@H](O[C@@H]2[C@@H](C)[C@H](OC(=O)Cc3cccnc3)[C@@H](C)C(=O)O[C@H](CC)[C@@]3(C)OC(=O)N(CCCCn4cnc5ncccc54)[C@@H]3[C@@H](C)C(=O)[C@H](C)C[C@@]2(C)OC)[C@@H]1O	0.06 (≈ 0.0643 µM)	1 (≈ 1.07 µM)	0.125 (≈ 0.134 µM)	0.25 (≈ 0.268 µM)	0.5 (≈ 0.536 µM)	0.5 (≈ 0.536 µM)	1 (≈ 1.07 µM)	0.03 (≈ 0.0321 µM)	0.125 (≈ 0.134 µM)	0.06 (≈ 0.0643 µM)	0.06 (≈ 0.0643 µM)	0.06 (≈ 0.0643 µM)	0.5 (≈ 0.536 µM)	0.25 (≈ 0.268 µM)	1 (≈ 1.07 µM)	0.125 (≈ 0.134 µM)	0.5 (≈ 0.536 µM)	0.5 (≈ 0.536 µM)	0.25 (≈ 0.268 µM)	Active
C=CCN(C)[C@H]1C[C@@H](C)O[C@@H](O[C@@H]2[C@@H](C)[C@H](OC(=O)Cc3ccccn3)[C@@H](C)C(=O)O[C@H](CC)[C@@]3(C)OC(=O)N(CCCCn4cncc4-c4ccco4)[C@@H]3[C@@H](C)C(=O)[C@H](C)C[C@@]2(C)OC)[C@@H]1O	0.06 (≈ 0.0633 µM)	2 (≈ 2.11 µM)	0.125 (≈ 0.132 µM)	0.25 (≈ 0.264 µM)	1 (≈ 1.05 µM)	1 (≈ 1.05 µM)	1 (≈ 1.05 µM)	0.015 (≈ 0.0158 µM)	–	0.125 (≈ 0.132 µM)	0.008 (≈ 0.00844 µM)	0.015 (≈ 0.0158 µM)	1 (≈ 1.05 µM)	0.25 (≈ 0.264 µM)	0.25 (≈ 0.264 µM)	0.125 (≈ 0.132 µM)	0.5 (≈ 0.527 µM)	0.5 (≈ 0.527 µM)	0.25 (≈ 0.264 µM)	Active
C=CCN(C)[C@H]1C[C@@H](C)O[C@@H](O[C@@H]2[C@@H](C)[C@H](OC(=O)Cc3ccccn3)[C@@H](C)C(=O)O[C@H](CC)[C@@]3(C)OC(=O)N(CCCCn4cnc5ncccc54)[C@@H]3[C@@H](C)C(=O)[C@H](C)C[C@@]2(C)OC)[C@@H]1O	0.5 (≈ 0.536 µM)	1 (≈ 1.07 µM)	0.06 (≈ 0.0643 µM)	0.125 (≈ 0.134 µM)	0.5 (≈ 0.536 µM)	0.5 (≈ 0.536 µM)	0.5 (≈ 0.536 µM)	0.06 (≈ 0.0643 µM)	< 0.06	0.25 (≈ 0.268 µM)	0.06 (≈ 0.0643 µM)	0.06 (≈ 0.0643 µM)	0.5 (≈ 0.536 µM)	0.125 (≈ 0.134 µM)	0.5 (≈ 0.536 µM)	0.06 (≈ 0.0643 µM)	0.125 (≈ 0.134 µM)	0.25 (≈ 0.268 µM)	0.125 (≈ 0.134 µM)	Active
C=CCN(C)[C@H]1C[C@@H](C)O[C@@H](O[C@@H]2[C@@H](C)[C@H](OC(=O)Cc3ccccn3)[C@@H](C)C(=O)O[C@H](CC)[C@@]3(C)OC(=O)N(CCCCn4cnc(-c5ccnc(N)c5)c4)[C@@H]3[C@@H](C)C(=O)[C@H](C)C[C@@]2(C)OC)[C@@H]1O	0.06 (≈ 0.0616 µM)	1 (≈ 1.03 µM)	0.06 (≈ 0.0616 µM)	0.125 (≈ 0.128 µM)	1 (≈ 1.03 µM)	0.5 (≈ 0.513 µM)	2 (≈ 2.05 µM)	0.03 (≈ 0.0308 µM)	–	0.06 (≈ 0.0616 µM)	0.03 (≈ 0.0308 µM)	2 (≈ 2.05 µM)	1 (≈ 1.03 µM)	0.125 (≈ 0.128 µM)	0.125 (≈ 0.128 µM)	0.03 (≈ 0.0308 µM)	0.125 (≈ 0.128 µM)	0.125 (≈ 0.128 µM)	0.06 (≈ 0.0616 µM)	Active
C=CCN(C)[C@H]1C[C@@H](C)O[C@@H](O[C@@H]2[C@@H](C)[C@H](OC(=O)Cc3ccccn3)[C@@H](C)C(=O)O[C@H](CC)[C@@]3(C)OC(=O)N(CCCCn4ccc5cccnc54)[C@@H]3[C@@H](C)C(=O)[C@H](C)C[C@@]2(C)OC)[C@@H]1O	0.25 (≈ 0.268 µM)	4 (≈ 4.29 µM)	0.25 (≈ 0.268 µM)	0.5 (≈ 0.536 µM)	2 (≈ 2.15 µM)	2 (≈ 2.15 µM)	4 (≈ 4.29 µM)	0.03 (≈ 0.0322 µM)	< 0.06	0.25 (≈ 0.268 µM)	0.03 (≈ 0.0322 µM)	0.03 (≈ 0.0322 µM)	2 (≈ 2.15 µM)	0.25 (≈ 0.268 µM)	1 (≈ 1.07 µM)	0.25 (≈ 0.268 µM)	1 (≈ 1.07 µM)	1 (≈ 1.07 µM)	0.5 (≈ 0.536 µM)	Active
